Measured values as given in patent publication US20260308185A1, “STAT DEGRADERS AND USES THEREOF” (Recludix Pharma, Inc., priority 2023, published 2026).

What was measured:
[1] = tested on: pSTAT3 (pY705-STAT3) in PBMC; assay: MSD-pSTAT-PBMC Assay (pSTAT3); format: cell-based; settings: compound 3 hrs, then 10 ng/mL IL-6 for 10 min
Source text: (§1) Cryopreserved Peripheral Blood Mononuclear Cells (PBMC) are from AllCells. Recombinant Human […] and IL-6 are from Peprotech. Mouse monoclonal anti-STAT3 antibody, rabbit monoclonal anti-pY705-STAT3 antibody, rabbit monoclonal Anti-pY641-STAT6 antibody, and lysis buffer are from Cell Signaling Technology (CST). Mouse monoclonal anti-STAT6 antibody is from BioLegend. Assay plates, blocker, and anti-rabbit secondary antibody are from Meso Scale Discovery (MSD).
(§2) Cryopreserved PBMCs were thawed out and allowed to recover overnight in IMDM+10% heat-inactivated FBS prior to plating 50,000 (STAT3) or 25,000 (STAT6) cells per well in 96-well U-bottom tissue culture plates. Cells were treated with compound for 3 hrs, then stimulated with 10 ng/mL IL-6 (STAT3) or 1 ng/mL IL-4 (STAT6) for 10 min. Cells were then spun down and washed with ice-cold PBS prior to lysing the cell pellet with 1× lysis buffer (CST) with 1× HALT protease and phosphatase inhibitor cocktail (Thermo). Lysates were transferred to and incubated overnight at 4° C. with shaking in QuickPlex 96-well high bind assay plates (MSD) pre-coated overnight with 30 μL per well of 0.6 μg/mL mouse monoclonal anti-STAT3 antibody (STAT3) or 2 μg/mL mouse monoclonal anti-STAT6 antibody (STAT6) in 1×PBS, and pre-blocked for 1 hour with 3% Blocker-A (MSD). Captured protein in the assay plates were then washed and probed with 25 μL per well of 0.25 μg/ml rabbit monoclonal anti-pY705-STAT3 antibody (STAT3) or 0.18 μg/ml rabbit monoclonal Anti-pY641-STAT6 antibody (STAT6) in 1% Blocker-A for 1 hour at room temperature with shaking, then washed and probed with 25 ul per well of 1 ug/ml Sulfo-TAG Labeled Goat Anti-Rabbit Antibody (MSD) in 1% Blocker-A for 1 hour at room temperature with shaking. Assay plates were then washed and 150 μL of 1× Read Buffer-T (MSD) was added to each well prior to reading on an SQ120 MSD Plate Reader. Assay signal from each sample was subtracted by the signal from unstimulated control wells and normalized to DMSO control wells, IC50 values were calculated using Graph Pad Prism Dose-Response Nonlinear Regression with variable slope. For both pSTAT3 and pSTAT6 A=≤100 nM; B=>100-1000 nM; C=>1000-3000 nM; and D=>3 μM.

[2] = biological target: T1, Recombinant STAT3 protein (STAT3(G127-I722)) (Homo sapiens, UniProt P40763); assay: STAT3 Fluorescence Polarization (FP) Assay; format: binding; settings: 25 nM STAT3(G127-I722), 2 nM 5-FAM-GpYLPQTV-NH2 probe, pH 7.4, 45-minute incubation at room temperature
T1 construct: Recombinant STAT3 protein (STAT3(G127-I722))
T1 sequence (P40763 127-722): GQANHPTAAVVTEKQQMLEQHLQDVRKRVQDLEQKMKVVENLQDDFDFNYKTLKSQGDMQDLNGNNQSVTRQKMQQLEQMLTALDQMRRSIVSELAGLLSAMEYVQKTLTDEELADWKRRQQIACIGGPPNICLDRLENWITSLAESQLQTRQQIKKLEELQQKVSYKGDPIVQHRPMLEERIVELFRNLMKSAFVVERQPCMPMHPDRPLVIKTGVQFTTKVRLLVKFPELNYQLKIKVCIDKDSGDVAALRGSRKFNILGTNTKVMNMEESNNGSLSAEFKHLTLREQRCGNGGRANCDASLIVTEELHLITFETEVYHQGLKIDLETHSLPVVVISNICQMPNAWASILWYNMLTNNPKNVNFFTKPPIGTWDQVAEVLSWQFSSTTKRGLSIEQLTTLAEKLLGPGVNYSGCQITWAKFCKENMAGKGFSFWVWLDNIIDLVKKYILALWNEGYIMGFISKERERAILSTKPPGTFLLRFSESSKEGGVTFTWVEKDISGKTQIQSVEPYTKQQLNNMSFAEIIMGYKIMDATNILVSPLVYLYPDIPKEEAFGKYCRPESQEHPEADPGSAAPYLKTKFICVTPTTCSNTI
Experimental: An FP assay was developed to determine IC50 values for test substances. Recombinant STAT3 protein (STAT3(G127-I722)) at 25 nM was combined with a fluorescently labeled, phosphotyrosine peptide probe (5-FAM-GpYLPQTV-NH2) at 2 nM in FP buffer (10 mM HEPES pH 7.4, 50 mM NaCl. 1 mM EDTA, 0.05% Tween 20, 2 mM DTT). 50 μL of STAT3-probe mixture was added to serial diluted compounds in black, 96-well plates (Greiner BioOne 655076) to a final concentration of 1% DMSO. Reaction components were mixed, and FP was measured after 45-minute incubation at room temperature using a Tecan Spark multimode plate reader. FP signal (mP) was plotted against the log concentration of the test substances and IC50 values were calculated by nonlinear regression analysis using GraphPad Prism software. For STAT3 FP assay, A=≤100 nM; B=>100-1000 nM; C=>1-10 μM; and D=>10 μM.

[3] = biological target: T2, Recombinant STAT6 protein (STAT6(W123-T658)) (Homo sapiens, UniProt P42226); assay: STAT6 Fluorescence Polarization (FP) Assay; format: binding; settings: 250 nM STAT6(W123-T658), 2 nM 5-FAM-Ap[…]-NH2 probe, pH 7.4, 45-minute incubation at room temperature
T2 construct: Recombinant STAT6 protein (STAT6(W123-T658))
T2 sequence (P42226 123-658): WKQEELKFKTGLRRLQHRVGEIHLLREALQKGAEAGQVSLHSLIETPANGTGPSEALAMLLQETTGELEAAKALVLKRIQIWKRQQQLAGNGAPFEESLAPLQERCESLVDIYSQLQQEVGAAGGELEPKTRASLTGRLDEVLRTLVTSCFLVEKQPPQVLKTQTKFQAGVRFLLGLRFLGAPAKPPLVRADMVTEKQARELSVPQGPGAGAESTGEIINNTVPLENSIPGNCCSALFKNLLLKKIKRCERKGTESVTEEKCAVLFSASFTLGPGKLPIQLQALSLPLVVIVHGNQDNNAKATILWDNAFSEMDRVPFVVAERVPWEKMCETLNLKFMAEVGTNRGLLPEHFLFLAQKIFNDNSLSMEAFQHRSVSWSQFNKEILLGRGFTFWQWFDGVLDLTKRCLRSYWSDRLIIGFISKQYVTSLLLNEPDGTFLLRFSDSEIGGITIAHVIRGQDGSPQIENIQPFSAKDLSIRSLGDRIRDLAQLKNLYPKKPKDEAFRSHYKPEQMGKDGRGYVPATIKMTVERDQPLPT
Experimental: An FP assay was developed to determine IC50 values for test substances. Recombinant STAT6 protein (STAT6(W123-T658)) at 250 nM was combined with a fluorescently labeled, phosphotyrosine peptide probe (5-FAM-Ap[…]-NH2) at 2 nM in FP buffer (10 mM HEPES pH 7.4, 50 mM NaCl, 1 mM EDTA, 0.05% Tween 20, 2 mM DTT). 50 μL of STAT6-probe mixture was added to serial diluted compounds in black, 96-well plates (Greiner BioOne 655076) to a final concentration of 1% DMSO. Reaction components were mixed, and FP w as measured after 45-minute incubation at room temperature using a Tecan Spark multimode plate reader. FP signal (mP) was plotted against the log concentration of the test substances and IC50 values were calculated by nonlinear regression analysis using GraphPad Prism software. For STAT6 FP assay. A=≤300 nM; B=>300-3000 nM; C=>3-30 μM; and D=>30 μM.

[4] = tested on: pSTAT6 (pY641-STAT6) in PBMC; assay: MSD-pSTAT-PBMC Assay (pSTAT6); format: cell-based; settings: compound 3 hrs, then 1 ng/mL IL-4 for 10 min
Source text: as §1, §2

| IC50 [2] [µM] | IC50 [3] [µM] | SMILES | IC50 [1] [µM] | IC50 [4] [µM] |
| --- | --- | --- | --- | --- |
| < 0.1 | 3 to 30 | CN(CCOc1ccc(C2CCC(=O)NC2=O)cc1)c1ccncc1C1CN(C(=O)[C@@H]2CC[C@@H]3C[C@H]4C[C@H]4C[C@H](NC(=O)c4cc5cc(C(F)(F)P(=O)(O)O)ccc5s4)C(=O)N32)C1 (stereo partly drawn) [Compound 11, ((2-(((3S,6S,7aS,8aR,9aR)-3-(3-(4-((2-(4-(2,6-dioxopiperidin-3-yl)phenoxy)ethyl)(methyl)amino)pyridin-3-yl)azetidine-1-carbonyl)-5-oxodecahydro-1H-cyclopropa[d]pyrrolo[1,2-a]azocin-6-yl)carbamoyl)benzo[b]thiophen-5-yl)difluoromethyl)phosphonic acid] | > 3 | – |
| < 0.1 | 3 to 30 | O=C1CCC(c2ccc(OCC(=O)N3CCN(c4ccncc4C4CN(C(=O)[C@@H]5CC[C@@H]6C[C@H]7C[C@H]7C[C@H](NC(=O)c7cc8cc(C(F)(F)P(=O)(O)O)ccc8s7)C(=O)N65)C4)CC3)cc2)C(=O)N1 (stereo partly drawn) [Compound 21, ((2-(((3S,6S,7aS,8aR,9aR)-3-(3-(4-(4-(2-(4-(2,6-dioxopiperidin-3-yl)phenoxy)acetyl)piperazin-1-yl)pyridin-3-yl)azetidine-1-carbonyl)-5-oxodecahydro-1H-cyclopropa[d]pyrrolo[1,2-a]azocin-6-yl)carbamoyl)benzo[b]thiophen-5-yl)difluoromethyl)phosphonic acid] | > 3 | – |
| – | – | CCCC(=O)SCCOP(=O)(OCCSC(=O)CCC)C(F)(F)c1ccc2sc(C(=O)NC3CC4CC4CC4CCC(C(=O)N5CC(NC(=O)CCCCCC#Cc6cccc7c6CN(C6CCC(=O)NC6=O)C7=O)(c6ccccn6)C5)N4C3=O)cc2c1 [Compound 2, S,S′-(((((2-(((3S,6S,7aS,8aR,9aR)-3-(3-(8-(2-(2,6-dioxopiperidin-3-yl)-1-oxoisoindolin-4-yl)oct-7-ynamido)-3-(pyridin-2-yl)azetidine-1-carbonyl)-5-oxodecahydro-1H-cyclopropa[d]pyrrolo[1,2-a]azocin-6-yl)carbamoyl)benzo[b]thiophen-5-yl)difluoromethyl)phosphoryl)bis(oxy))bis(ethane-2,1-diyl)) dibutanethioate] | < 0.1 | > 3 |
| – | – | CCCC(=O)SCCOP(=O)(OCCSC(=O)CCC)C(F)(F)c1ccc2sc(C(=O)NC3CC4CC4CC4CCC(C(=O)N5CC(c6cnccc6N(C)CCOc6ccc(C7CCC(=O)NC7=O)cc6)C5)N4C3=O)cc2c1 [Compound 12, S,S′-(((((2-(((3S,6S,7aS,8aR,9aR)-3-(3-(4-((2-(4-(2,6-dioxopiperidin-3-yl)phenoxy)ethyl)(methyl)amino)pyridin-3-yl)azetidine-1-carbonyl)-5-oxodecahydro-1H-cyclopropa[d]pyrrolo[1,2-a]azocin-6-yl)carbamoyl)benzo[b]thiophen-5-yl)difluoromethyl)phosphoryl)bis(oxy))bis(ethane-2,1-diyl)) dibutanethioate] | < 0.1 | – |
| – | – | CCCC(=O)SCCOP(=O)(OCCSC(=O)CCC)C(F)(F)c1ccc2sc(C(=O)N[C@H]3C[C@@H]4C[C@@H]4C[C@H]4CCC(C(=O)N5CC(c6cnccc6N6CCN(C(=O)COc7ccc(C8CCC(=O)NC8=O)cc7)CC6)C5)N4C3=O)cc2c1 (stereo partly drawn) [Compound 22, S,S′-(((((2-(((3S,6S,7aS,8aR,9aR)-3-(3-(4-(4-(2-(4-(2,6-dioxopiperidin-3-yl)phenoxy)acetyl)piperazin-1-yl)pyridin-3-yl)azetidine-1-carbonyl)-5-oxodecahydro-1H-cyclopropa[d]pyrrolo[1,2-a]azocin-6-yl)carbamoyl)benzo[b]thiophen-5-yl)difluoromethyl)phosphoryl)bis(oxy))bis(ethane-2,1-diyl)) dibutanethioate] | < 0.1 | – |
| < 0.1 | 3 to 30 | O=C1CCC(N2Cc3c(C#CCCCCCC(=O)NC4(c5ccccn5)CN(C(=O)[C@@H]5CC[C@@H]6C[C@H]7C[C@H]7C[C@H](NC(=O)c7cc8cc(C(F)(F)P(=O)(O)O)ccc8s7)C(=O)N65)C4)cccc3C2=O)C(=O)N1 (stereo partly drawn) [Compound 1, ((2-(((3S,6S,7aS,8aR,9aR)-3-(3-(8-(2-(2,6-dioxopiperidin-3-yl)-1-oxoisoindolin-4-yl)oct-7-ynamido)-3-(pyridin-2-yl)azetidine-1-carbonyl)-5-oxodecahydro-1H-cyclopropa[d]pyrrolo[1,2-a]azocin-6-yl)carbamoyl)benzo[b]thiophen-5-yl)difluoromethyl)phosphonic acid] | > 3 | – |
